Results reported in patent US11547112B2, “Solvents for agricultural applications and pesticide formulations” (Dow Global Technologies LLC, priority 2017, dated 2023).

Test: Solubility of pesticides in solvents (stepwise 2% increments of pesticide powder)
Conditions: highest concentration still dissolved, no more than 2% lower than actual solubility; for Solubility in Comparative Solvent B: solvent: diethylene glycol monoethyl ether; for Solubility in Comparative Solvent A: solvent: dimethyl sulfoxide (DMSO); for Solubility in Comparative Solvent C: solvent: ethyl 3-ethoxypropionate
Procedure: The solubility of various pesticides in these solvents are evaluated.
Each pesticide powder is added by solvent in 2% stepwise increments to the final pesticide concentration. Each pesticide reaches a concentration where the pesticide powder is not dissolved by the solvent.

## CCCCC(C#N)(Cn1cncn1)c1ccc(Cl)cc1 (stereo not drawn) [Myclobutanil]
  Solubility in Comparative Solvent B: 46.0 weight %
  Solubility in Comparative Solvent A: 56.7 weight %
  Solubility in Comparative Solvent C: 39.0 weight %

## COC(=O)N(OC)c1ccccc1COc1ccn(-c2ccc(Cl)cc2)n1 [Pyraclostrobin]
  Solubility in Comparative Solvent B: 33.0 weight %
  Solubility in Comparative Solvent A: 40.0 weight %
  Solubility in Comparative Solvent C: 47.0 weight %

## CC(C)(C)C(O)(CCc1ccc(Cl)cc1)Cn1cncn1 (stereo not drawn) [Tebuconazole]
  Solubility in Comparative Solvent B: 26.5 weight %
  Solubility in Comparative Solvent A: 32.3 weight %
  Solubility in Comparative Solvent C: 16.0 weight %

## CC(C)(C)C(=O)C(Oc1ccc(Cl)cc1)n1cncn1 (stereo not drawn) [Triazolone]
  Solubility in Comparative Solvent B: 35.7 weight %
  Solubility in Comparative Solvent A: 43.3 weight %
  Solubility in Comparative Solvent C: 32.0 weight %
